{"source": "patent US9085555B2", "about": "“Complement pathway modulators and uses thereof” (priority 2011, dated 2015)"}
{"molecular_target": "Factor D (Homo sapiens (Human), UniProt P00746)", "sequence (P00746 26-253)": "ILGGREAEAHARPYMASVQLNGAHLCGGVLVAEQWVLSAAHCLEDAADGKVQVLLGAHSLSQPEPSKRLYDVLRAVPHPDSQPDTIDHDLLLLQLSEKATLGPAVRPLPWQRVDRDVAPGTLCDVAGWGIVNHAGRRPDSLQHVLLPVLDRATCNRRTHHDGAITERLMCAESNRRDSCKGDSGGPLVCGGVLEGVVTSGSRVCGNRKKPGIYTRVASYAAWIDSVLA", "assay": "biochemical", "format": "biochemical", "details": "read-out: IC50", "units": {"IC50": "nM"}}
{"molecule": "CC(=O)c1cn(CC(=O)N2[C@@H]3C[C@@H]3C[C@H]2C(=O)NCc2cccc(Cl)c2F)c2nc(C(=O)O)ccc12", "note": "[Example 704, 3-Acetyl-1-{2-[(1R,3S,5R)-3-(3-chloro-2-fluoro-benzylcarbamoyl)-2-aza-bicyclo[3.1.0]hex-2-yl]-2-oxo-ethyl}-1H-pyrrolo[2,3-b]pyridine-6-carboxylic acid]", "IC50": 23}
{"molecule": "NC(=O)c1nn(CC(=O)N2[C@@H]3C[C@@H]3C[C@H]2C(=O)NCc2cccc(Cl)c2F)c2c[n+]([O-])ccc12", "note": "[Example 705, 3-Carbamoyl-1-(2-((1R,3S,5R)-3-(3-chloro-2-fluorobenzylcarbamoyl)-2-azabicyclo[3.1.0]hexan-2-yl)-2-oxoethyl)-1H-pyrazolo[3,4-c]pyridine 6-oxide]", "IC50": 21}
{"molecule": "C[C@@H](NC(=O)[C@@H]1C[C@H]2C[C@H]2N1C(=O)Cn1nc(C(N)=O)c2cc[n+]([O-])cc21)c1cccc(Cl)c1F", "note": "[Example 706, 3-Carbamoyl-1-(2-((1R,3S,5R)-3-((R)-1-(3-chloro-2-fluorophenyl)ethyl-carbamoyl)-2-azabicyclo[3.1.0]hexan-2-yl)-2-oxoethyl)-1H-pyrazolo[3,4-c]pyridine 6-oxide]", "IC50": 45}
{"molecule": "NC(=O)c1nn(CC(=O)N2[C@@H]3C[C@@H]3C[C@H]2C(=O)Nc2cccc(OC(F)(F)F)c2F)c2ccccc12", "note": "[Example 707, 1-{2-[(1R,3S,5R)-3-(2-Fluoro-3-trifluoromethoxy-phenylcarbamoyl)-2-aza-bicyclo[3.1.0]hex-2-yl]-2-oxo-ethyl}-1H-indazole-3-carboxylic acid amide]", "IC50": 88}
{"molecule": "NC(=O)c1nn(CC(=O)N2C[C@H](F)C[C@H]2C(=O)Nc2cccc(OC(F)(F)F)c2F)c2ccccc12", "note": "[Example 708]", "IC50": 54}
{"molecule": "NC(=O)c1nn(CC(=O)N2[C@@H]3C[C@@H]3C[C@H]2C(=O)Nc2cccc(OC(F)(F)F)c2F)c2ccncc12", "note": "[Example 709, 1-(2-((1R,3S,5R)-3-(2-fluoro-3-(trifluoromethoxy)phenylcarbamoyl)-2-azabicyclo[3.1.0]hexan-2-yl)-2-oxoethyl)-1H-pyrazolo[4,3-c] pyridine-3-carboxamide]", "IC50": 144}
{"molecule": "COC(=O)c1ccc2c(C(C)=O)nn(CC(=O)N3[C@@H]4C[C@@H]4C[C@H]3C(=O)Nc3cccc(OC(F)(F)F)c3F)c2c1", "note": "[Example 710, Methyl 3-acetyl-1-(2-((1R,3S,5R)-3-(2-fluoro-3-(trifluoromethoxy)phenylcarbamoyl)-2-azabicyclo [3.1.0]hexan-2-yl)-2-oxoethyl)-1H-indazole-6-carboxylate]", "IC50": 52}
{"molecule": "CC(=O)c1nn(CC(=O)N2[C@@H]3C[C@@H]3C[C@H]2C(=O)Nc2cccc(OC(F)(F)F)c2F)c2ncccc12", "note": "[Example 711, (1R,3S,5R)-2-[2-(3-Acetyl-pyrazolo[3,4-b]pyridin-1-yl)-acetyl]-2-aza-bicyclo[3.1.0]hexane-3-carboxylic acid (2-fluoro-3-trifluoromethoxy-phenyl)-amide]", "IC50": 71}
{"molecule": "CCc1cc2c(C(N)=O)nn(CC(=O)N3[C@@H]4C[C@@H]4C[C@H]3C(=O)Nc3cccc(OC(F)(F)F)c3F)c2cn1", "note": "[Example 712, 5-Ethyl-1-{2-[(1R,3S,5R)-3-(2-fluoro-3-trifluoromethoxy-phenylcarbamoyl)-2-aza-bicyclo[3.1.0]hex-2-yl]-2-oxo-ethyl}-1H-pyrazolo[3,4-c]pyridine-3-carboxylic acid amide]", "IC50": 38}
{"molecule": "Cc1cc2c(cn1)c(C(N)=O)nn2CC(=O)N1[C@@H]2C[C@@H]2C[C@H]1C(=O)Nc1cccc(OC(F)(F)F)c1F", "note": "[Example 713, 1-{2-[(1R,3S,5R)-3-(2-Fluoro-3-trifluoromethoxy-phenylcarbamoyl)-2-aza-bicyclo[3.1.0]hex-2-yl]-2-oxo-ethyl}-6-methyl-1H-pyrazolo[4,3-c]pyridine-3-carboxylic acid amide]", "IC50": 260}
{"molecule": "COc1cc2c(C(N)=O)nn(CC(=O)N3[C@@H]4C[C@@H]4C[C@H]3C(=O)Nc3cccc(OC(F)(F)F)c3F)c2cn1", "note": "[Example 714, 1-{2-[(1R,3S,5R)-3-(2-Fluoro-3-trifluoromethoxy-phenylcarbamoyl)-2-aza-bicyclo[3.1.0]hex-2-yl]-2-oxo-ethyl}-5-methoxy-1H-pyrazolo[3,4-c]pyridine-3-carboxylic acid amide]", "IC50": 300}
{"molecule": "CCc1cc2c(C(N)=O)nn(CC(=O)N3C[C@H](F)C[C@H]3C(=O)Nc3cccc(OC(F)(F)F)c3F)c2cn1", "note": "[Example 715, 5-Ethyl-1-{2-[(2S,4R)-4-fluoro-2-(2-fluoro-3-trifluoromethoxy-phenylcarbamoyl)-pyrrolidin-1-yl]-2-oxo-ethyl}-1H-pyrazolo[3,4-c]pyridine-3-carboxylic acid amide]", "IC50": 27}
{"molecule": "Cc1nccc2c(C(N)=O)nn(CC(=O)N3[C@@H]4C[C@@H]4C[C@H]3C(=O)Nc3cccc(OC(F)(F)F)c3F)c12", "note": "[Example 716, 1-{2-[(1R,3S,5R)-3-(2-Fluoro-3-trifluoromethoxy-phenylcarbamoyl)-2-aza-bicyclo[3.1.0]hex-2-yl]-2-oxo-ethyl}-7-methyl-1H-pyrazolo[3,4-c]pyridine-3-carboxylic acid amide]", "IC50": 46}
{"molecule": "Cc1cc2c(C(N)=O)nn(CC(=O)N3[C@@H]4C[C@@H]4C[C@H]3C(=O)Nc3cccc(OC(F)(F)F)c3F)c2c(C)n1", "note": "[Example 717, 1-{2-[(1R,3S,5R)-3-(2-Fluoro-3-trifluoromethoxy-phenylcarbamoyl)-2-aza-bicyclo[3.1.0]hex-2-yl]-2-oxo-ethyl}-5,7-dimethyl-1H-pyrazolo [3,4-c]pyridine-3-carboxylic acid amide]", "IC50": 31}
{"molecule": "CC(=O)c1nn(CC(=O)N2[C@@H]3C[C@@H]3C[C@H]2C(=O)Nc2cccc(OC(F)(F)F)c2F)c2ccc(OCc3ncccn3)cc12", "note": "[Example 718, (1R,3S,5R)-2-{2-[3-Acetyl-5-(pyrimidin-2-ylmethoxy)-indazol-1-yl]-acetyl}-2-aza-bicyclo[3.1.0]hexane-3-carboxylic acid (2-fluoro-3-trifluoromethoxy-phenyl)-amide]", "IC50": 24}
{"molecule": "NC(=O)c1nn(CC(=O)N2[C@@H]3C[C@@H]3C[C@H]2C(=O)Nc2cccc(OC(F)(F)F)c2F)c2cnc(C3CC3)cc12", "note": "[Example 719, 5-Cyclopropyl-1-(2-((1R,3S,5R)-3-((2-fluoro-3-(trifluoromethoxy)phenyl)carbamoyl)-2-azabicyclo [3.1.0]hexan-2-yl)-2-oxoethyl)-1H-pyrazolo[3,4-c]pyridine-3-carboxamide]", "IC50": 13}
{"molecule": "NC(=O)c1nn(CC(=O)N2[C@@H]3C[C@@H]3C[C@H]2C(=O)Nc2cccc(OC(F)(F)F)c2F)c2nnccc12", "note": "[Example 720, 1-(2-((1R,3S,5R)-3-((2-Fluoro-3-(trifluoromethoxy)phenyl)carbamoyl)-2-azabicyclo[3.1.0]hexan-2-yl)-2-oxoethyl)-1H-pyrazolo[3,4-c] pyridazine-3-carboxamide]", "IC50": 140}
{"molecule": "NC(=O)c1nn(CC(=O)N2[C@@H]3C[C@@H]3C[C@H]2C(=O)Nc2cccc(-c3c(F)cccc3F)n2)c2cnccc12", "note": "[Example 721, 1-(2-{(1R,3S,5R)-3-[6-(2,6-Difluoro-phenyl)-pyridin-2-ylcarbamoyl]-2-aza-bicyclo[3.1.0]hex-2-yl}-2-oxo-ethyl)-1H-pyrazolo[3,4-c]pyridine-3-carboxamide]", "IC50": 98}
{"molecule": "NC(=O)c1nn(CC(=O)N2[C@@H]3C[C@@H]3C[C@H]2C(=O)Nc2cccc(-c3c(F)cccc3Cl)c2)c2cnccc12", "note": "[Example 722, 1-(2-((1R,3S,5R)-3-(2′-Chloro-6′-fluorobiphenyl-3-ylcarbamoyl)-2-azabicyclo[3.1.0]hexan-2-yl)-2-oxoethyl)-1H-pyrazolo[3,4-c] pyridine-3-carboxamide]", "IC50": 20}
{"molecule": "Cc1cc2c(C(N)=O)nn(CC(=O)N3[C@@H]4C[C@@H]4C[C@H]3C(=O)Nc3cccc(OC(F)(F)F)c3F)c2cn1", "note": "[Example 723, 1-{2-[(1R,3S,5R)-3-(2-Fluoro-3-trifluoromethoxy-phenylcarbamoyl)-2-aza-bicyclo[3.1.0]hex-2-yl]-2-oxo-ethyl}-5-methyl-1H-pyrazolo[3,4-c]pyridine-3-carboxylic acid amide]", "IC50": 90}
{"molecule": "NC(=O)c1nn(CC(=O)N2[C@@H]3C[C@@H]3C[C@H]2C(=O)Nc2cccc(OC(F)(F)F)c2F)c2cnccc12", "note": "[Example 724]", "IC50": 61}
{"molecule": "CC(=O)c1nn(CC(=O)N2[C@@H]3C[C@@H]3C[C@H]2C(=O)Nc2cccc(OC(F)(F)F)c2F)c2cc(C(=O)O)ccc12", "note": "[Example 725]", "IC50": 18}
{"molecule": "Cc1cc2c(C(N)=O)nn(CC(=O)N3[C@@H]4C[C@@H]4C[C@H]3C(=O)Nc3cccc(OC(F)(F)F)c3F)c2c[n+]1[O-]", "note": "[Example 726]", "IC50": 169}
{"molecule": "NC(=O)c1nn(CC(=O)N2[C@@H]3C[C@@H]3C[C@H]2C(=O)Nc2cccc(Br)n2)c2cnccc12", "note": "[Example 728, 1-{2-[(1R,3S,5R)-3-(6-bromo-pyridin-2-ylcarbamoyl)-2-aza-bicyclo[3.1.0]hex-2-yl]-2-oxo-ethyl}-1H-pyrazolo[3,4-c] pyridine-3-carboxylic acid amide]", "IC50": 8}
{"molecule": "NC(=O)c1nn(CC(=O)N2[C@@H]3C[C@@H]3C[C@H]2C(=O)Nc2cccc(OC(F)F)c2F)c2ccccc12", "note": "[Example 729, 1-{2-[(1R,3S,5R)-3-(3-Difluoromethoxy-2-fluoro-phenylcarbamoyl)-2-aza-bicyclo[3.1.0]hex-2-yl]-2-oxo-ethyl}-1H-indazole-3-carboxylic acid amide]", "IC50": 62}
{"molecule": "NC(=O)c1nn(CC(=O)N2[C@@H]3C[C@@H]3C[C@H]2C(=O)Nc2cccc(OC(F)F)c2F)c2cnccc12", "note": "[Example 730, 1-{2-[(1R,3S,5R)-3-(3-Difluoromethoxy-2-fluoro-phenylcarbamoyl)-2-aza-bicyclo[3.1.0]hex-2-yl]-2-oxo-ethyl}-1H-pyrazolo[3,4-c] pyridine-3-carboxylic acid amide]", "IC50": 143}
{"molecule": "NC(=O)c1nn(CC(=O)N2[C@@H]3C[C@@H]3C[C@H]2C(=O)Nc2cccc(Cl)c2F)c2ccccc12", "note": "[Example 731, 1-{2-[(1R,3S,5R)-3-(3-Chloro-2-fluoro-phenylcarbamoyl)-2-aza-bicyclo[3.1.0]hex-2-yl]-2-oxo-ethyl}-1H-indazole-3-carboxylic acid amide]", "IC50": 53}
{"molecule": "NC(=O)c1nn(CC(=O)N2[C@@H]3C[C@@H]3C[C@H]2C(=O)Nc2cccc(C(F)(F)F)n2)c2cnccc12", "note": "[Example 732, 1-{2-Oxo-2-[(1R,3S,5R)-3-(6-trifluoromethyl-pyridin-2-ylcarbamoyl)-2-aza-bicyclo [3.1.0]hex-2-yl]-ethyl}-1H-pyrazolo[3,4-c]pyridine-3-carboxylic acid amide]", "IC50": 44}
